Measured values published in US10597388B2, “Pyridazinone herbicides” (FMC CORPORATION, priority 2014, dated 2020).

Assays:
Experiment in all cases: Test D controlled growth environment herbicide test, pre- and postemergence
Type in all cases: in vivo
[1] = tested on: Russian thistle (Salsola kali)
Procedure, shortened: (§1)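 Pre-emergence: seeds sown in silt loam soil were sprayed with compound in a non-phytotoxic solvent mix containing surfactant. Post-emergence: plants at 2 to 18 cm (1- to 4-leaf stage) in peat moss/vermiculite medium got the same formulation. Visual 0–100 rating versus controls after 14 to 21 d.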

[2] = tested on: blackgrass (Alopecurus myosuroides)
Procedure, shortened: as §1

[3] = tested on: bromegrass, downy (downy bromegrass, Bromus tectorum)
Procedure, shortened: as §1

[4] = tested on: chamomile (scentless chamomile, Matricaria inodora)
Procedure, shortened: as §1

[5] = tested on: chickweed (common chickweed, Stellaria media)
Procedure, shortened: as §1

[6] = tested on: deadnettle (henbit deadnettle, Lamium amplexicaule)
Procedure, shortened: as §1

[7] = tested on: field violet (Viola arvensis)
Procedure, shortened: as §1

[8] = tested on: kochia (Kochia scoparia)
Procedure, shortened: as §1

[9] = tested on: lambsquarters (Chenopodium album)
Procedure, shortened: as §1

[10] = tested on: radish, wild (wild radish, Raphanus raphanistrum)
Procedure, shortened: as §1

[11] = tested on: ryegrass, Italian (Italian ryegrass, Lolium multiflorum)
Procedure, shortened: as §1

[12] = tested on: speedwell (bird's-eye speedwell, Veronica persica)
Procedure, shortened: as §1

[13] = tested on: wheat, winter (winter wheat, Triticum aestivum)
Procedure, shortened: as §1

[14] = tested on: windgrass (Apera spica-venti)
Procedure, shortened: as §1

[15] = Postemergence, 31 g ai/ha, scale 0 to 100 (0 no effect, 100 complete control)
[16] = Postemergence, 125 g ai/ha, visual rating on scale 0 (no effect) to 100 (complete control), 14 to 21 d
[17] = Postemergence, 250 g ai/ha, scale 0 to 100 (0 no effect, 100 complete control)
[18] = Preemergence, 62 g ai/ha, scale 0 to 100 (0 no effect, 100 complete control)
[19] = Preemergence, 125 g ai/ha, scale 0 to 100 (0 no effect, 100 complete control)
[20] = Preemergence, 250 g ai/ha, scale 0 to 100, 0 no effect, 100 complete control
[21] = postemergence, 62 g ai/ha, scale 0 to 100, 0 no effect, 100 complete control

Q: For `Cn1nc(Br)c(O)c(-c2cccc3ccccc23)c1=O` [Compound 20], which “Russian Thistle plant response rating” value [1, 15] is on record?
A: 70

Q: And the “Plant response rating, Russian Thistle” value [1, 16]?
A: 80

Q: What about the “Plant response rating, Russian Thistle” value [1, 17] of the same molecule?
A: 98

Q: What about the “Plant response rating (scale of 0 to 100), Russian Thistle” value ([1]; Preemergence, 31 g ai/ha) of the same molecule?
A: 0

Q: And the “Plant response rating, Russian Thistle” value [1, 18]?
A: 30

Q: And the “Plant response rating, Russian Thistle” value [1, 19]?
A: 40

Q: What about the “Plant response rating, Russian Thistle” value [1, 20] of the same molecule?
A: 70

Q: What about the “Plant response rating, Russian Thistle” value [1, 21] of the same molecule?
A: 75

Q: And the “Blackgrass plant response rating” value [2, 15]?
A: 15

Q: And the “Plant response rating, Blackgrass” value [2, 16]?
A: 50

Q: And the “Plant response rating, Blackgrass” value [2, 17]?
A: 60

Q: And the “Plant response rating (scale of 0 to 100), Blackgrass” value ([2]; Preemergence, 31 g ai/ha)?
A: 20

Q: And the “Plant response rating, Blackgrass” value [2, 18]?
A: 40

Q: And the “Plant response rating, Blackgrass” value [2, 19]?
A: 60

Q: What about the “Blackgrass plant response rating” value [2, 20] of the same molecule?
A: 75

Q: And the “Plant response rating, Blackgrass” value [2, 21]?
A: 40

Q: And the “Bromegrass, Downy plant response rating” value [3, 15]?
A: 0

Q: And the “Plant response rating, Bromegrass, Downy” value [3, 16]?
A: 10

Q: What about the “Plant response rating, Bromegrass, Downy” value [3, 17] of the same molecule?
A: 15

Q: What about the “Plant response rating (scale of 0 to 100), Bromegrass, Downy” value ([3]; Preemergence, 31 g ai/ha) of the same molecule?
A: 15

Q: And the “Plant response rating, Bromegrass, Downy” value [3, 18]?
A: 35

Q: And the “Plant response rating, Bromegrass, Downy” value [3, 19]?
A: 40

Q: And the “Plant response rating, Bromegrass, Downy” value [3, 20]?
A: 45

Q: What about the “Plant response rating, Bromegrass, Downy” value [3, 21] of the same molecule?
A: 10

Q: And the “Chamomile plant response rating” value [4, 15]?
A: 70

Q: What about the “Plant response rating, Chamomile” value [4, 16] of the same molecule?
A: 100

Q: What about the “Plant response rating, Chamomile” value [4, 17] of the same molecule?
A: 100

Q: What about the “Plant response rating, Chamomile” value [4, 21] of the same molecule?
A: 95

Q: And the “Chickweed plant response rating” value [5, 15]?
A: 90

Q: What about the “Plant response rating, Chickweed” value [5, 16] of the same molecule?
A: 100

Q: And the “Plant response rating, Chickweed” value [5, 17]?
A: 100

Q: What about the “Plant response rating (scale of 0 to 100), Chickweed” value ([5]; Preemergence, 31 g ai/ha) of the same molecule?
A: 85

Q: What about the “Plant response rating, Chickweed” value [5, 18] of the same molecule?
A: 95

Q: What about the “Plant response rating, Chickweed” value [5, 19] of the same molecule?
A: 95

Q: And the “Plant response rating, Chickweed” value [5, 20]?
A: 95

Q: What about the “Plant response rating, Chickweed” value [5, 21] of the same molecule?
A: 100

Q: And the “Deadnettle plant response rating” value [6, 15]?
A: 25

Q: What about the “Plant response rating, Deadnettle” value [6, 16] of the same molecule?
A: 55

Q: What about the “Plant response rating, Deadnettle” value [6, 17] of the same molecule?
A: 65

Q: What about the “Plant response rating (scale of 0 to 100), Deadnettle” value ([6]; Preemergence, 31 g ai/ha) of the same molecule?
A: 0

Q: And the “Plant response rating, Deadnettle” value [6, 18]?
A: 0

Q: And the “Plant response rating, Deadnettle” value [6, 19]?
A: 10

Q: And the “Plant response rating, Deadnettle” value [6, 20]?
A: 20

Q: And the “Plant response rating, Deadnettle” value [6, 21]?
A: 35

Q: And the “Field Violet plant response rating” value [7, 15]?
A: 5

Q: And the “Plant response rating, Field Violet” value [7, 16]?
A: 25

Q: And the “Plant response rating, Field Violet” value [7, 17]?
A: 45

Q: And the “Plant response rating (scale of 0 to 100), Field Violet” value ([7]; Preemergence, 31 g ai/ha)?
A: 0

Q: What about the “Plant response rating, Field Violet” value [7, 18] of the same molecule?
A: 15

Q: What about the “Plant response rating, Field Violet” value [7, 19] of the same molecule?
A: 25

Q: What about the “Plant response rating, Field Violet” value [7, 20] of the same molecule?
A: 75

Q: What about the “Plant response rating, Field Violet” value [7, 21] of the same molecule?
A: 15

Q: And the “Kochia plant response rating” value [8, 15]?
A: 35

Q: And the “Plant response rating, Kochia” value [8, 16]?
A: 85

Q: What about the “Plant response rating, Kochia” value [8, 17] of the same molecule?
A: 100

Q: And the “Plant response rating (scale of 0 to 100), Kochia” value ([8]; Preemergence, 31 g ai/ha)?
A: 0

Q: What about the “Plant response rating, Kochia” value [8, 18] of the same molecule?
A: 25

Q: What about the “Plant response rating, Kochia” value [8, 19] of the same molecule?
A: 70

Q: And the “Plant response rating, Kochia” value [8, 20]?
A: 90

Q: And the “Plant response rating, Kochia” value [8, 21]?
A: 65

Q: What about the “Lambsquarters plant response rating” value [9, 15] of the same molecule?
A: 85

Q: What about the “Plant response rating, Lambsquarters” value [9, 16] of the same molecule?
A: 90

Q: And the “Plant response rating, Lambsquarters” value [9, 17]?
A: 95

Q: What about the “Plant response rating (scale of 0 to 100), Lambsquarters” value ([9]; Preemergence, 31 g ai/ha) of the same molecule?
A: 75

Q: What about the “Plant response rating, Lambsquarters” value [9, 18] of the same molecule?
A: 90

Q: And the “Plant response rating, Lambsquarters” value [9, 19]?
A: 100

Q: And the “Plant response rating, Lambsquarters” value [9, 20]?
A: 100

Q: What about the “Plant response rating, Lambsquarters” value [9, 21] of the same molecule?
A: 85

Q: What about the “Radish, Wild plant response rating” value [10, 15] of the same molecule?
A: 50

Q: What about the “Plant response rating, Radish, Wild” value [10, 16] of the same molecule?
A: 70

Q: What about the “Plant response rating, Radish, Wild” value [10, 17] of the same molecule?
A: 65

Q: And the “Plant response rating (scale of 0 to 100), Radish, Wild” value ([10]; Preemergence, 31 g ai/ha)?
A: 0

Q: And the “Plant response rating, Radish, Wild” value [10, 18]?
A: 0

Q: And the “Plant response rating, Radish, Wild” value [10, 19]?
A: 50

Q: And the “Plant response rating, Radish, Wild” value [10, 20]?
A: 65

Q: What about the “Plant response rating, Radish, Wild” value [10, 21] of the same molecule?
A: 40

Q: What about the “Ryegrass, Italian plant response rating” value [11, 15] of the same molecule?
A: 55

Q: And the “Plant response rating, Ryegrass, Italian” value [11, 16]?
A: 80

Q: And the “Plant response rating, Ryegrass, Italian” value [11, 17]?
A: 90

Q: And the “Plant response rating (scale of 0 to 100), Ryegrass, Italian” value ([11]; Preemergence, 31 g ai/ha)?
A: 90

Q: What about the “Plant response rating, Ryegrass, Italian” value [11, 18] of the same molecule?
A: 100

Q: And the “Plant response rating, Ryegrass, Italian” value [11, 19]?
A: 100

Q: And the “Plant response rating, Ryegrass, Italian” value [11, 20]?
A: 100

Q: And the “Plant response rating, Ryegrass, Italian” value [11, 21]?
A: 70

Q: What about the “Speedwell plant response rating” value [12, 15] of the same molecule?
A: 5

Q: What about the “Plant response rating, Speedwell” value [12, 16] of the same molecule?
A: 100

Q: What about the “Plant response rating, Speedwell” value [12, 17] of the same molecule?
A: 100

Q: And the “Plant response rating (scale of 0 to 100), Speedwell” value ([12]; Preemergence, 31 g ai/ha)?
A: 70

Q: What about the “Plant response rating, Speedwell” value [12, 18] of the same molecule?
A: 70

Q: And the “Plant response rating, Speedwell” value [12, 19]?
A: 70

Q: What about the “Plant response rating, Speedwell” value [12, 20] of the same molecule?
A: 90

Q: What about the “Plant response rating, Speedwell” value [12, 21] of the same molecule?
A: 15

Q: And the “Wheat, Winter plant response rating” value [13, 15]?
A: 0

Q: And the “Plant response rating, Wheat, Winter” value [13, 16]?
A: 15

Q: What about the “Plant response rating, Wheat, Winter” value [13, 17] of the same molecule?
A: 25

Q: What about the “Plant response rating (scale of 0 to 100), Wheat, Winter” value ([13]; Preemergence, 31 g ai/ha) of the same molecule?
A: 0

Q: What about the “Plant response rating, Wheat, Winter” value [13, 18] of the same molecule?
A: 0

Q: What about the “Plant response rating, Wheat, Winter” value [13, 19] of the same molecule?
A: 15

Q: What about the “Plant response rating, Wheat, Winter” value [13, 20] of the same molecule?
A: 25

Q: And the “Plant response rating, Wheat, Winter” value [13, 21]?
A: 10

Q: What about the “Windgrass plant response rating” value [14, 15] of the same molecule?
A: 25

Q: What about the “Plant response rating, Windgrass” value [14, 16] of the same molecule?
A: 30

Q: What about the “Plant response rating, Windgrass” value [14, 17] of the same molecule?
A: 40

Q: And the “Plant response rating (scale of 0 to 100), Windgrass” value ([14]; Preemergence, 31 g ai/ha)?
A: 35

Q: And the “Plant response rating, Windgrass” value [14, 18]?
A: 40

Q: And the “Plant response rating, Windgrass” value [14, 19]?
A: 50

Q: What about the “Plant response rating, Windgrass” value [14, 20] of the same molecule?
A: 60

Q: And the “Plant response rating, Windgrass” value [14, 21]?
A: 30
